From US9714245B2, “Carboline compounds usable in the treatment of neurodegenerative diseases” (ALZPROTECT, priority 2013, dated 2017)

What was measured:
[1] = system: secreted Aβ1-42; experiment: Aβ1-42 secretion by APP-transfected neuroblastoma cells (ELISA); assay type: cell-based; details: Homo sapiens, Neuroblastoma cell; SKNSH-SYSY APPWT cells; concentration decreasing secreted Aβ1-42 to 50% of basal amount
Method: (§1) Cell Cultures and Transfections to Test Activity on Aβ1-40 and Aβ1-42 Secretion
(§2) Human neuroblastoma cell line SKNSH-SYSY (ATCC® Catalog No. CRL-2266™), HEK (ATCC® CRL-1573™) and COS-1 (ATCC® CRL-1650™) cells were maintained in Dulbecco's modified Eagle medium (DMEM, GIBCO BRL) supplemented with 10% fetal calf serum, 2 mM L-glutamine, 1 mM non-essential amino acids, 50 units/ml penicillin/streptomycin (Invitrogen, France) in a 5% CO2 humidified incubator at 37° C. APP695 cDNA was subcloned into eukaryotic expression vector pcDNA3 (Invitrogen), allowing for a G418 (Invitrogen) selection of clones. This APP cDNA coding for the 695 amino acid long isoform was transfected into SKNSH-SYSY cells using the ethyleneimine polymer ExGen 500 (Euromedex) according to the manufacturer's instructions. The cells expressing APP (SKNSH-SYSY APP^WT) were selected by the addition of 200 μg/ml G418 in the cell medium. To quantify AR which released in the cell culture medium, the collected medium was spun at 200×g to eliminate the cell debris. The concentrations of secreted Aâ1-40 and Aβ1-42 were determined using the Human Aβ (1-40) Assay Kit (IBL) or the INNOTEST™ beta-Amyloid (1-42) ELISA Kit (Innogenetics), according to manufacturer's instructions. The results were expressed as IC50, i.e. the concentration able to decrease to 50% the basal amount of secreted Aβ peptide 1-40 and 1-42.

[2] = system: CTFα; experiment: In vivo chronic treatment, CTFα in brain tissue; set-up: species or system C57Bl6 mice; details: 12 weeks in drinking water, 3 mg/kg
Method: In Vivo Chronic Treatment
Female C57Bl6 mice of 4 month-old were treated with either vehicle (control) or drug at 1 and 3 mg/kg (n=10 per group) for 12 weeks in drinking water. First of all, all mice were weighted and distributed in each cage in order to have approximately the same average of weight±SD per cage. Each concentration of product as well as vehicule was prepared in sterile bottles and the bottles were kept at room temperature protected from light. The drinking bottles were filled weekly and weighted. Volume consumed was calculated by weighting each bottle after each week and the remaining volume was discarded. After 12 weeks, mice were sacrificed and their troncal blood was collected and stored at 4° C. Brains were immediately removed to dissect the Frontal Cortex, the Cortex around the Hippocampus and the Hippocampus. These areas were stored at −80° C. until use. Blood was then centrifuged at 2100×g for 5 min. Resulting plasma was used to quantify the circulating drug and brain tissues were used for biochemical determinations (PFC: prefrontal cortex and HIP: hippocampus).

[3] = system: secreted Aβ1-40; experiment: Aβ1-40 secretion by APP-transfected neuroblastoma cells (ELISA); assay type: cell-based; details: Homo sapiens, Neuroblastoma cell; SKNSH-SYSY APPWT cells; concentration decreasing secreted Aβ1-40 to 50% of basal amount
Method: as §1, §2

[4] = system: AICD; experiment: Quantification of AICD by Western blot in SY5Y-APPWT cells; assay type: cell-based, Human; details: compared to a control with a value of 100
Method: (§3) Quantifications of APP-CTFs and AICD
(§4) After treatment, SY5Y-APP^WT cells were scrapped and lysed in 1× Lysis Buffer (250 mM NaCl, 50 mM Tris, pH 8.8, 5 mM EDTA, 2.5% Triton X-100, 1% Deoxycholate, 0.1% SDS). For the Western blotting, an equal amount of total proteins (20 μg/lane) was loaded on a 16.5% Tris-Tricine or 8-16% Tris-Glycine polyacrylamide gel.
(§5) SDS-polyacrylamide gel electrophoresis (PAGE) was performed using the Criterion™ Tris-Tricine-precast or Bis-Tris-precast criterion gels (Bio-Rad Bioresearch division). Proteins were transferred to a […] nitrocellulose membrane (Hybond, Amersham Biosciences) at 2.5 mA/cm2 per gel using the Criterion™ Blotter system (Amersham Biosciences), according to the manufacturer's instructions. Proteins were reversibly stained with Ponceau Red in order to check the quality of the transfer of protein. The membranes were blocked in 25 mM Tris-HCl pH 8.0, 150 mM NaCl, 0.1% Tween-20 (v/v) and 5% (w/v) of skimmed milk for 30 min. Membranes were incubated overnight at 4° C. with appropriate dilution of the primary antibodies, and were incubated for 1 h at room temperature with secondary antibody. […] Quantifications were calculated with Image J software (NIH) and the data were collected using Excel Software (Microsoft). The loading variations between Western blot lanes were normalized according to the tubulin signal. Quantification of CTFα and AICD were compared to control conditions (considered as 100 in arbitrary units) and are presented for two concentrations of the drug: 1 and 10 μM.

[5] = system: sAPPα; experiment: Soluble APPα quantification (ELISA); assay type: cell-based, Human; details: 24 h, control considered as 100
Method: Soluble APPα Quantification
Human neuroblastoma cell line SKNSH-SYSY APP′ was cultured in Dulbecco's modified Eagle medium (Invitrogen) supplemented with 10% fetal calf serum (PAA), 2 mM L-glutamine (Invitrogen), 1 mM non-essential amino acids (Invitrogen), 50 units/ml penicillin/streptomycin (Invitrogen), and 200 μg G418=geneticin (Invitrogen) (selection for cell expressing APP) in a 5% CO2 humidified incubator at 37° C. Cells were counted and seed at 400000 cells/well into a 12-wells plate for 24 h. The day after, cells were treated with 700 μL/well of drug at 0.3; 1; 3 and 10 μM and incubated for 24 h in a 5% CO2 incubator at 37° C. After treatment, culture medium samples were collected and stored at −80° C. until analysis. Samples corresponding to the 1 and 10 μM treatment were centrifuged 1500 rpm for 5 min at 4° C. sAPPα quantification by ELISA was done with Human sAPPα Assay Kit-IBL (Cat#27734) in accordance with manufacturer's protocol. Samples were diluted at 1:150 in the diluent buffer provided in the kit. Each sample was loaded in duplicate onto the 96 well-plate. Results are expressed in ng/ml and then compared to control conditions (considered as 100 in arbitrary units) and are presented for two concentrations of the drug: 1 and 10 μM.

[6] = Metabolic stability (method not described); details: comparative statement
[7] = Cytotoxicity evaluation (MTS assay); assay type: cell-based, Human; details: human, SY5Y-APPWT neuroblastoma cells (expressing APP); SY5Y-APPWT cells, 24 h treatment, MTS
Method: (§6) Human neuroblastoma cell line SY5Y-APP^WT was used to assess the cytotoxic effects of each compound. SY5Y-APP^WT cells were seeded at 20000 cells/well onto 96-well plates and were cultured in Dulbecco's modified Eagle medium (DMEM, Invitrogen) supplemented with 10% fetal calf serum (PAA), 2 mM L-glutamine (Invitrogen), 1 mM non-essential amino acids (Invitrogen), 50 units/ml penicillin/streptomycin (Invitrogen), and 200 μg G418=geneticin (Invitrogen) (selection for cells expressing APP) in a 5% CO2 humidified incubator at 37° C. After 24 h, the cells were washed and incubated with the compound at 0.1; 0.3; 1; 3; 10; 30 and 100 μM or with DMSO as control diluted in the same culture medium at 37° C. in 5% CO2. After 24 h of treatment, cytotoxicity was determined by using colorimetric MTS assay (CellTiter 96® Aqueous One Solution Cell Proliferation Assay-MTS Promega) according to the protocol of the manufacturer. Absorbance was read at 490 nm and results were expressed as % from control condition considered as 100%.

[8] = system: SY5Y-APPWT cells; experiment: Cytotoxicity evaluation (MTS assay); assay type: cell-based, Human; details: comparative statement
Method: as §6

[9] = system: CTFα; experiment: Quantification of APP-CTFα by Western blot in SY5Y-APPWT cells; assay type: cell-based, Human; details: compared to a control with a value of 100
Method: as §3, §4, §5

[10] = molecular target: T1, HIS-tagged valosin-containing protein/p97 (VCP/p97) (Homo sapiens, UniProt P55072); experiment: VCP interaction assay (competition with biotinylated probe 4.7); assay type: binding; details: compound 60 μM against biotinylated probe 4.7 20 μM
T1 construct: purchased TebuBio
Method: Physical interaction between HIS-tagged valosin-containing protein/p97 (VCP/p97) (TebuBio) and biotinylated probe 4.7 was investigated by Enzyme-Linked Assay (ELA) based on HIS-Select® High Sensitivity Nickel coated plates, used following manufacturer's recommendations (Sigma Aldrich). Other chemical compounds were tested in competition with the biotinylated probe 4.7 in this system. Briefly, nickel beads were incubated overnight at 4° C. with 2% casein blocking solution. After a three-time rinse with wash buffer (0.05% Tween20 in phosphate buffer saline), HIS-tagged VCP/p97 protein (5 μg/ml in PBS) was incubated with nickel beads for 90 min at 25° C. Then, the plate was washed three times. Chemical compounds (60 μM) were incubated 10 min at 25° C. before addition of biotinylated probe 4.7 (20 μM) 30 min at 25° C. After five washes, streptavidin-peroxidase (2 μg/ml) was added during 1 h at 25° C., followed by the peroxidase substrate addition 30 min at RT. Reaction was stopped with 0.5M H2SO4 solution and the optical density was read at 450 nm using a microplate reader (VICTOR X4 Wallac, 2030-0040, PerkinElmer). Competition efficiency was quantified by the loss of signal compared to the control condition.

T1 sequence (P55072 whole entry): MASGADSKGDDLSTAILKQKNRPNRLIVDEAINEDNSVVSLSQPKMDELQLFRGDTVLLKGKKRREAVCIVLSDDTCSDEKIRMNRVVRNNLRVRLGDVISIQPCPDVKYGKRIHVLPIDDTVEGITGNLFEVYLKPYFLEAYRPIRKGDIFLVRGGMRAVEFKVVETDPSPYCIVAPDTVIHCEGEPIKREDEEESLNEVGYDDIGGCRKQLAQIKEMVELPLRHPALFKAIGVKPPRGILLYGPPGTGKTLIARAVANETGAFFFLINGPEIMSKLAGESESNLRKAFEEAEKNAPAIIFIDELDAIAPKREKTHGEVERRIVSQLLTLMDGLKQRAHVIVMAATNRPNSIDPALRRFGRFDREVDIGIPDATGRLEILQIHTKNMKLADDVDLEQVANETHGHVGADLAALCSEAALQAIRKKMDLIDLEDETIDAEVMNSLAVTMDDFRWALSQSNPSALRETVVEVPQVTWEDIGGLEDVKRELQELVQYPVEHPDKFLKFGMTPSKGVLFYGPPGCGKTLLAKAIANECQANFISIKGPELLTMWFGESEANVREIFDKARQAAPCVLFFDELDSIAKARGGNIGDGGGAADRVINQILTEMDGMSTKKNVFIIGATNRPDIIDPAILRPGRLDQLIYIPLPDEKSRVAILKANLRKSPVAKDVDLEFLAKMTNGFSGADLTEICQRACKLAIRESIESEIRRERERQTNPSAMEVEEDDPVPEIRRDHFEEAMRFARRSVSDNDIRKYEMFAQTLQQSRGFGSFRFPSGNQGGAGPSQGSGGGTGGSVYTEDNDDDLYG

IC50 [1] | IC50 [3] | metabolic stability (in words) [6] | VCP (competition efficiency, loss of signal compared to the control) [10] | Structure (SMILES) | increase of CTFα in hippocampus (HIP) [2] | increase of CTFα in prefrontal cortex (PFC) [2] | AICD (10 μM) [4] | sAPPα (10 μM) [5] | CC50 at 24 h [7] | toxicity (in words) [8] | CTFα (10 μM) [9]
1000 nM | 3000 nM | metabolically more stable | – | Fc1ccc2[nH]c3c(c2c1)CN(CCCN1CCN(CCCN2CCCC2)CC1)CC3 [Compound 3.1f, 8-Fluoro-2-{3-[4-(3-(pyrrolidin-1-yl)propyl)piperazin-1-yl]propyl}-2,3,4,5-tetrahydro-1H-pyrido[4,3-b]indole] | 25% | 20% | 1011 arbitrary units | 100 arbitrary units | > 100000 nM | less toxic | –
> 10000 nM | > 10000 nM | – | 70% | CN(C)CCCN1CCN(CCCN2CCc3c([nH]c4ccccc34)C2)CC1 [Compound 3.2d, N,N-dimethyl-3-(4-(3-(1,3,4,9-tetrahydro-1H-beta-carbolin-2-yl)propyl)piperazin-1-yl)propylamine] | – | – | 41661 arbitrary units | – | > 100000 nM | – | 1042 arbitrary units
2000 nM | 2500 nM | – | – | CN(C)CCCN1CCN(CCCN2CCc3c([nH]c4ccccc34)C2c2ccccc2)CC1 (stereo not drawn) [Compound 3.2e, N,N-dimethyl-3-(4-(3-(1-phenyl-1,3,4,9-tetrahydro-1H-beta-carbolin-2-yl)propyl)piperazin-1-yl)propylamine] | – | – | 4765 arbitrary units | – | 12000 nM | – | 234 arbitrary units
